Data on 5 molecules can be found in patent US20250120967A1, “TYROSINE KINASES INHIBITORS AND USES THEREOF” (GREAT NOVEL THERAPEUTICS BIOTECH & MEDICALS CORPORATION, priority 2023, published 2025).

Each structure is given as a SMILES string. Where “and” joins values, the source holds several entries; their conditions need not be identical. Equal entries are not always repeated.

For test [1], the target named is T1, AURKA (Aurora A) (Homo sapiens, UniProt O14965).
T1 sequence (O14965 1-403): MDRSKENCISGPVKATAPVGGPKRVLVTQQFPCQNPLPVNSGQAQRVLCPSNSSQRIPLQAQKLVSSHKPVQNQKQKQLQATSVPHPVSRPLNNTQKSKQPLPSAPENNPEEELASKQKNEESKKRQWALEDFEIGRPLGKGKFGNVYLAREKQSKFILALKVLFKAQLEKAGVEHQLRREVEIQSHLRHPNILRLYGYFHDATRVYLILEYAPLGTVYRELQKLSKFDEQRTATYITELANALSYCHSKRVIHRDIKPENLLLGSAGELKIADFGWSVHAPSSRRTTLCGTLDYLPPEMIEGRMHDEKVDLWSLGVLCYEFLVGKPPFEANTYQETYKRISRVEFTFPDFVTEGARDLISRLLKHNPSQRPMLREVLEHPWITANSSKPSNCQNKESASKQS
The test can be described thus: Tyrosine kinase inhibition assay. In kind it is biochemical. The settings on record: single concentration 1.0 μM, read-out: percent inhibition. The method in brief: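 Values are percent inhibition at 1.0 μM compound, with inhibition above 80% defined as a hit. Peptide substrate phosphorylation was assessed by Z′-LYTE at apparent-Km ATP in HEPES pH 7.5 buffer containing MgCl2, EGTA and BRIJ-35.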

For test [2], the system named is SNB-75. The test can be described thus: NCI-60 screen (SRB). The class given is cell-based. Particulars: Homo sapiens; SNB-75, CNS Cancer. The method, then: (§1) The human tumor cell lines of the cancer screening panel are grown in RPMI 1640 medium containing 5% fetal bovine serum and 2 mM L-glutamine. For a typical screening experiment, cells are inoculated into 96 well microtiter plates in 100 μL at plating densities ranging from 5,000 to 40,000 cells/well depending on the doubling time of individual cell lines. After cell inoculation, the microtiter plates are incubated at 37° C., 5% CO2, 95% air and 100% relative humidity for 24 h prior to addition of experimental drugs. After 24 h, two plates of each cell line are fixed in situ with TCA, to represent a measurement of the cell population for each cell line at the time of drug addition (Tz). Experimental drugs are solubilized in dimethyl sulfoxide at 400-fold the desired final maximum test concentration and stored frozen prior to use. At the time of drug addition, an aliquot of frozen concentrate is thawed and diluted to twice the desired final maximum test concentration with complete medium containing 50 µg/ml gentamicin. An additional four, 10-fold or M log serial dilutions are made to provide a total of five drug concentrations plus control. Aliquots of 100 μl of these different drug dilutions are added to the appropriate microtiter wells already containing 100 μl of medium, resulting in the required final drug concentrations. Following drug addition, the plates are incubated for an additional 48 h at 37° C., 5% CO2, 95% air, and 100% relative humidity. For adherent cells, the assay is terminated by the addition of cold TCA. Cells are fixed in situ by the gentle addition of 50 μl of cold 50% (w/v) TCA (final concentration, 10% TCA) and incubated for 60 minutes at 4° C. The supernatant is discarded, and the plates are washed five times with tap water and air dried. Sulforhodamine B (SRB) solution (100 l) at 0.4% (w/v) in 1% acetic acid is added to each well, and plates are incubated for 10 minutes at room temperature. After staining, unbound dye is removed by washing five times with 1% acetic acid and the plates are air dried. Bound stain is subsequently solubilized with 10 mM trizma base, and the absorbance is read on an automated plate reader at a wavelength of 515 nm. For suspension cells, the methodology is the same except that the assay is terminated by fixing settled cells at the bottom of the wells by gently adding 50 μl of 80% TCA (final concentration, 16% TCA).

Test [3] addresses KIT (Homo sapiens, UniProt P10721). The test can be described thus: Tyrosine kinase inhibition assay. The class given is biochemical. The settings on record: single concentration 1.0 μM, read-out: percent inhibition. As to the method: Tyrosine kinase inhibition assays were performed at ThermoFisher Life Technologies (Madison, WI, USA) using standard protocols (SelectScreen Biochemical Profiling Service, Thermo Fisher Scientific). ATP concentrations used were at the apparent Km. Test compounds were screened in 1% dimethylsulffoxide (DMSO) (final concentration) in the well. For 10-point titrations, 3-fold serial dilutions were conducted from the starting concentration of […]. All Peptide/Kinase Mixtures were diluted to a 2× working concentration in the appropriate Kinase Buffer. All ATP Solutions were diluted to a 4× working concentration in Kinase Buffer (50 mM HEPES pH 7.5, 0.01% BRIJ-35, 10 mM MgCl2, 1 mM EGTA). The apparent ATP Km was previously determined using a Z′-LYTE assay. The Development Reagent was diluted in Development Buffer.
The inhibition activities of compounds were determined in biochemical assays using single concentration (1.0 μM) measurements. The results were provided as percent inhibition values. […]

Test [4] relates to CT26 cells. The test can be described thus: Tumor rechallenge test, CT26 rechallenge. In kind it is in vivo, Balb/c mice. The settings on record: Table 9, CT26 rechallenge, GNTbm-38-K30 20 mg/kg, Regorafenib 30 mg/kg, Cbo-23 30 mg/kg. As to the method:
(§2) Mice evaluated as CR/PR can enter the rechallenge study. All mice with PR/CR response went through rechallenges with CT26 cells on the contralateral side. The first rechallenge was performed after second assessment with a tumor dose of 1×10^6 cells per mouse. After 7 days of growth, CT26 and LLC1 tumor sizes were used as the baseline. Tumor growth was monitored for a duration of 11 days, and on the 11th day, a tumor size assessment was conducted relative to the baseline. If both of the following criteria are met, the response will be considered as relapse: first, the tumor size was over 1.5 folds when compared to that of baseline; second, the tumor volume was over 150 mm^3.
(§3) If both of the following criteria are met, the response will be considered as relapse: first, the tumor size over 1.5 folds when compared to that of baseline; second, the tumor volume at day 67 was over 150 mm^3.
(§4) If both of the following criteria are met, the response will be considered as relapse: first, the tumor size was over 1.5 folds when compared to that of baseline; second, the tumor volume at day 56 was over 150 mm^3.

Test [5] concerns LLC1. The test can be described thus: Tumor rechallenge test, LLC1 rechallenge. The settings on record: Table 9, LLC1 rechallenge, GNTbm-38-K30 20 mg/kg, Regorafenib 30 mg/kg, Cbo-23 30 mg/kg. In kind it is in vivo. The method, then: as §2, §3, §4
Test [6] concerns RPMI-8226. The test can be described thus: NCI-60 screen (SRB). In kind it is cell-based. Particulars: Homo sapiens; RPMI-8226, Leukemia. The method, then:
as §1

KIT, sequence (P10721 26-976): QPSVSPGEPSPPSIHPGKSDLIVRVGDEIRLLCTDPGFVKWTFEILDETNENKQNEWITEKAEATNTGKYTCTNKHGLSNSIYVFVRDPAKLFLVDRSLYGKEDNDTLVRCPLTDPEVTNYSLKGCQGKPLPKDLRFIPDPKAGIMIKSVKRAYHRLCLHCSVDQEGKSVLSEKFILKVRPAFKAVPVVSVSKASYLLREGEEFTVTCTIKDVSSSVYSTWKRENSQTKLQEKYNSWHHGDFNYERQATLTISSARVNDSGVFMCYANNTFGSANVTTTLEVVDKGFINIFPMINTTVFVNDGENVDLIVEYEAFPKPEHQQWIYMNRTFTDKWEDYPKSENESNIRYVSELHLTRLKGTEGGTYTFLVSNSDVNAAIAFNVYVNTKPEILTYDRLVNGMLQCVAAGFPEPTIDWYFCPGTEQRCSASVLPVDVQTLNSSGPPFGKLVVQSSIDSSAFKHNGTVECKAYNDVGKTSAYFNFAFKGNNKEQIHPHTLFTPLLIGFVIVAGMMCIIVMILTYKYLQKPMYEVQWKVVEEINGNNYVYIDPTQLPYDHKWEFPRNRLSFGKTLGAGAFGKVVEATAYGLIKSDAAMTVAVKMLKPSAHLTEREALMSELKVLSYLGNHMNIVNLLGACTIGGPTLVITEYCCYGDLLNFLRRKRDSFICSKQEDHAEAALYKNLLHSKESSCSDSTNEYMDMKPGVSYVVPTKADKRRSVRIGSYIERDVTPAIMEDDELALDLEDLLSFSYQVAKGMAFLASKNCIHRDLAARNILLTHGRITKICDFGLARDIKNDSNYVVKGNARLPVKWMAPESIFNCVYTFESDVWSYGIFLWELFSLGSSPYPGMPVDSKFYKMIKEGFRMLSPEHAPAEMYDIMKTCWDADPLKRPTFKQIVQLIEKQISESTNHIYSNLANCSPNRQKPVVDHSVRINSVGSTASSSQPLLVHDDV

As usually defined, the inhibition is the share of the control response that was lost under treatment. In the case of `COc1cc2nccc(Oc3ccc(NC(=O)C4(C(=O)Nc5ccc(F)cc5)CC4)cc3)c2cc1OC` [Cabozantinib, reference compound], the inhibition at 1 µM in test [1] stood at 55%.
For orientation: GI50 means the concentration at which growth is held to half of that of the control. Higher therefore signals less potent growth inhibition. On to `COc1cc2nccc(Oc3ccc(NC(=O)C4(C(=O)Nc5ccc(F)cc5)CC4)cc3F)c2cc1Oc1ccc(N)cc1F` [Cbo-23], for which halving of growth in test [2] (GI50) required 178 nM. The inhibition at 1 µM stood at 51% in test [3] and 55% in test [1]. The “Day 56 Fold change” value is 2.6 and 0 in test [4] (individual mice, vs Day 45); 2.5 and 1.0 in test [5] (individual mice, vs Day 45). In addition, the “Day 45 mm^3 (baseline tumor size)” value is 119.17 mm^3 and 60.82 mm^3 in test [4] (individual mice); 163.76 mm^3 and 173.53 mm^3 in test [5] (individual mice). For the same molecule, the “Day 56 mm^3” value was 309.20 mm^3 and 0 mm^3 in test [4] (individual mice); 403.54 mm^3 and 169.80 mm^3 in test [5] (individual mice). In addition, the Score result is recorded as “+ (If both of the following criteria are met, the response will be considered as relapse: first, the tumor size was over 1.5 folds when compared to that of baseline; second, the tumor volume at day 56 was over 150 mm^3.)” in test [4] (individual mice) and “+ (If both of the following criteria are met, the response will be considered as relapse: first, the tumor size was over 1.5 folds when compared to that of baseline; second, the tumor volume at day 56 was over 150 mm^3.)” in test [5] (individual mice). In addition, the “Immunity Percentage” value in test [4] and in test [5] was 50% (1/2) throughout.
Regarding `COc1cc2nccc(Oc3ccc(NC(=O)C4(NC(=O)c5ccc(F)cc5)CC4)cc3F)c2cc1Oc1ccc(N)cc1F` [Cbo-10], the concentration for 50% growth inhibition (GI50) was 2.99 µM in test [6] and above 100000 nM in test [2]. Also, the inhibition at 1 µM in test [3] came to 48%; in test [1], 92%.
Take `COc1cc2nccc(Oc3ccc(NC(=O)C4(NC(=O)c5ccc(F)cc5)CC4)cc3F)c2cc1OC` [Cbo-02, N-(1-((4-((6,7-diMethoxyquinolin-4-yl)oxy)-3-fluorophenyl)carbamoyl)cyclopropyl)-4-fluorobenzamide]: in test [6], it took 4.57 µM to inhibit growth by half (GI50). Also, the inhibition at 1 µM in test [3] turned out to be 33%; in test [1], 75%.
For the molecule `COc1cc2nccc(Oc3ccc(NC(=O)C4(NC(=O)c5ccc(F)cc5)CC4)cc3F)c2cc1Oc1c(F)cc(N)cc1F` [Cbo-14], the results for the inhibition at 1 µM in test [3] and in test [1] were 45% and 89%, respectively.
